SMILES strings stand for the structures.

Series [1] can be described thus: logP determination by HPLC (reversed-phase C18), acidic range. Format: physicochemical. Particulars: pH 2.3, C18, 43° C., 0.1% aqueous phosphoric acid/acetonitrile. The method, then:
The logP values given in the Preparation Examples were determined in accordance with EEC Directive 79/831 Annex V.A8 by HPLC (High Performance Liquid Chromatography) using a reversed-phase column (C 18). Temperature: 43° C.
Mobile phases for the determination in the acidic range: 0.1% aqueous phosphoric acid, acetonitrile; linear gradient from 10% acetonitrile to 90% acetonitrile.
Calibration was carried out using unbranched alkan-2-ones (having 3 to 16 carbon atoms) with known logP values (determination of the logP values by the retention times using linear interpolation between two successive alkanones).

The subject of series [2] is Alternaria solani. The series is described as follows: Alternaria Test (Tomato)/Protective. Conditions: 48 h, protective, application rate 100 g/ha, evaluation 2 days after inoculation, read-out: Efficacy in %. In kind it is in vivo. The procedure: Alternaria Test (Tomato)/Protective
(§1) To produce a suitable preparation of active compound, 1 part by weight of active compound is mixed with the stated amounts of solvent and emulsifier, and the concentrate is diluted with water to the desired concentration.
To test for protective activity, young tomato plants are sprayed with the preparation of active compound at the stated application rate. 1 day after the treatment, the plants are inoculated with an aqueous spore suspension of Alternaria solani. The plants are then placed in an incubation cabin at about 20° C. and 100% relative atmospheric humidity.
Evaluation is carried out 2 days after the inoculation. 0% means an efficacy which corresponds to that of the control, whereas efficacy of 100% means that no infection is observed.

The test system of series [3] is Venturia inaequalis. The series is described as follows: Venturia Test (Apple)/Protective. Format: in vivo. Conditions: 240 h, protective, application rate 100 g/ha, evaluation 10 days after inoculation, read-out: Efficacy in %. The procedure: Venturia Test (Apple)/Protective
as §1
To test for protective activity, young plants are sprayed with the preparation of active compound at the stated application rate. After the spray coating has dried on, the plants are inoculated with an aqueous conidia suspension of the apple scab pathogen Venturia inaequalis and then remained in an incubation cabin at about 20° C. and 100% relative atmospheric humidity for 1 day.
The plants are then placed in a greenhouse at about 21° C. and a relative atmospheric humidity of about 90%.
(§2) Evaluation is carried out 10 days after the inoculation. 0% means an efficacy which corresponds to that of the control, whereas efficacy of 100% means that no infection is observed.

For series [4], the system named is Sphaerotheca fuliginea. The series is described as follows: Sphaerotheca Test (Cucumber)/Protective. Format: in vivo. Conditions: protective, application rate 750 g/ha, evaluation 7 days after inoculation. The procedure: Sphaerotheca Test (Cucumber)/Protective
as §1
To test for protective activity, young cucumber plants are sprayed with the preparation of active compound at the stated application rate. 1 day after the treatment, the plants are inoculated with a spore suspension of Sphaerotheca fuliginea. The plants are then placed in a greenhouse at 70% relative atmospheric humidity and temperature of 23° C.
(§3) Evaluation is carried out 7 days after the inoculation. 0% means an efficacy which corresponds to that of the control, whereas efficacy of 100% means that no infection is observed.

Series [5] relates to Podosphaera leucotricha. The series is described as follows: Podosphaera Test (Apple)/Protective. In kind it is in vivo. Conditions: 240 h, protective, application rate 100 g/ha, evaluation 10 days after inoculation, read-out: Efficacy in %. The method, then: Podosphaera Test (Apple)/Protective
as §1
To test for protective activity, young plants are sprayed with the preparation of active compound at the stated application rate. After the spray coating has dried on, the plants are inoculated with an aqueous spore suspension of the apple mildew pathogen Podosphaera leucotricha. The plants are then placed in a greenhouse at about 23° C. and a relative atmospheric humidity of about 70%.
as §2

The test system of series [6] is Pyrenophora teres. In words: Pyrenophora teres Test (Barley)/Protective. Particulars: protective, application rate 500 g/ha, evaluation 7 days after inoculation. In kind it is in vivo. The method, then: Pyrenophora teres Test (Barley)/Protective
as §1
To test for protective activity, young plants are sprayed with the preparation of active compound at the stated application rate. After the spray coating has dried on, the plants are sprayed with a conidia suspension of Pyrenophora teres. The plants remain in an incubation cabin at 20° C. and 100% relative atmospheric humidity for 48 h. The plants are then placed in a greenhouse at a temperature of about 20° C. and a relative atmospheric humidity of about 80%.
as §3

For the compound `Cc1occc1C(=O)Nc1ccccc1-c1ccc(Cl)cc1F` [Example 1, N-(4′-chloro-2′-fluoro-1,1′-biphenyl-2-yl)-2-methyl-3-furamide], the chromatographic logP in series [1] (reversed-phase C18 HPLC column) stood at 3.38.
Regarding `Cc1occc1C(=O)Nc1ccccc1-c1ccc(Br)cc1` [Example 2], the pest or weed control at 100 g/ha in series [2] and in series [3] was 100% throughout. Also, the chromatographic logP in series [1] came to 3.71. Also, the Efficacy in % in series [4] stood at 90%.
Take `Cc1occc1C(=O)Nc1ccccc1-c1ccc(C(F)(F)F)cc1` [Example 3]: the pest or weed control at 100 g/ha in series [2] was 100%; in series [3], 100%; in series [5], 93%. The chromatographic logP in series [1] turned out to be 3.53. The Efficacy in % in series [4] stood at 100%.
Regarding `Cc1occc1C(=O)Nc1ccccc1-c1cccc(Cl)c1` [Example 4], the results for the pest or weed control at 100 g/ha in series [2], in series [3] and in series [5] were 98%, 100% and 100%, respectively. For the same compound, the chromatographic logP in series [1] worked out at 3.58. Also, the Efficacy in % in series [4] was determined as 95%.
Consider `Cc1occc1C(=O)Nc1ccccc1-c1ccc(OC(F)(F)F)cc1` [Example 5], for which the pest or weed control at 100 g/ha in series [2] came out at 92%; in series [3], 100%; in series [5], 93%. In series [1], this compound registered a chromatographic logP of 3.91.
For the compound `CSc1ccc(-c2ccccc2NC(=O)c2ccoc2C)cc1` [Example 6], the pest or weed control at 100 g/ha in series [2] stood at 95%; in series [3], 100%; in series [5], 92%. Further, in series [1], the chromatographic logP worked out at 3.63.
Take `Cc1occc1C(=O)Nc1ccccc1-c1ccc(F)c(F)c1` [Example 8]: the pest or weed control at 100 g/ha worked out at 82% in series [2], 100% in series [3] and 85% in series [5]. Also, the chromatographic logP in series [1] came out at 3.22.
Take `Cc1occc1C(=O)Nc1ccccc1-c1ccc(Cl)c(F)c1` [Example 9]: the pest or weed control at 100 g/ha in series [2] is 100%; in series [3], 100%; in series [5], 97%. Moreover, the chromatographic logP in series [1] turned out to be 3.43.
`Cc1occc1C(=O)Nc1ccccc1-c1ccc(F)c(Cl)c1` [Example 10]: the values for the pest or weed control at 100 g/ha in series [2], in series [3] and in series [5] were 95%, 100% and 100%, respectively. The same compound yielded a chromatographic logP in series [1] of 3.46.
With `Cc1occc1C(=O)Nc1ccccc1-c1ccc(Cl)c(Cl)c1` [Example 15], the pest or weed control at 100 g/ha stood at 96% in series [2], 100% in series [3] and 100% in series [5]. In series [6], the Efficacy in % was found to be 90%. In series [1], the chromatographic logP worked out at 3.73.
With `Cc1occc1C(=O)Nc1ccccc1-c1cc(Cl)cc(Cl)c1` [Example 16], the chromatographic logP in series [1] is 3.9. The Efficacy in % in series [4] worked out at 90%.

Usually chromatographic logP stands for lipophilicity estimated from chromatographic retention.
